Laboratory results reported in paper PMC8373216, “Development and Preclinical Evaluation of New Inhaled Lipoglycopeptides for the Treatment of Persistent Pulmonary Methicillin-Resistant Staphylococcus aureus Infections” (Antimicrobial Agents and Chemotherapy, 2021).
Values after ≈ are worked out from the molar mass of the structure shown. Read-outs that look alike come from different tables or passages of the source. Each block holds one molecule with its values, some of them ahead of it.

Columns and labels:
[1] = system: MRSA ATCC BAA 1556 (USA300); assay: In-house broth microdilution MIC screening; assay type: cell-based, Staphylococcus aureus; settings: for MIC: Staphylococcus aureus, read-out: MIC Value, MRSA ATCC BAA 1556
[2] = system: MSSA ATCC 29213; assay: In-house broth microdilution MIC screening; assay type: cell-based; settings: Staphylococcus aureus, read-out: MIC Value, MSSA ATCC 29213
[3] = MRSA and MSSA isolates of Table 1

Compound: CCCCCCCCCCCCCCCC(=O)NCCNC1(C)CC(OC2C(Oc3c4cc5cc3Oc3ccc(cc3Cl)C(O)C3NC(=O)C(NC(=O)C5NC(=O)C(CC(N)=O)NC(=O)C(NC(=O)C(CC(C)C)NC)C(O)c5ccc(c(Cl)c5)O4)c4ccc(O)c(c4)-c4c(O)cc(O)cc4C(C(=O)O)NC3=O)OC(CO)C(O)C2O)OC(C)C1O (centres unmarked) [RV91]
MIC ([1]; broth microdilution): 0.25 µg/mL (≈ 0.144 µM) | MIC ([2]; broth microdilution): 0.188 µg/mL (≈ 0.109 µM)

Compound: CCCCCCCC(=O)OCCNC1(C)CC(OC2C(Oc3c4cc5cc3Oc3ccc(cc3Cl)C(O)C3NC(=O)C(NC(=O)C5NC(=O)C(CC(N)=O)NC(=O)C(NC(=O)C(CC(C)C)NC)C(O)c5ccc(c(Cl)c5)O4)c4ccc(O)c(c4)-c4c(O)cc(O)cc4C(C(=O)O)NC3=O)OC(CO)C(O)C2O)OC(C)C1O (centres unmarked) [RV90]
MIC [1]: 0.25 µg/mL (≈ 0.154 µM) | MIC [2]: 0.25 µg/mL (≈ 0.154 µM)

Compound: CCCCCCCCCCCCCCCCNC(=O)CNC1(C)CC(OC2C(Oc3c4cc5cc3Oc3ccc(cc3Cl)C(O)C3NC(=O)C(NC(=O)C5NC(=O)C(CC(N)=O)NC(=O)C(NC(=O)C(CC(C)C)NC)C(O)c5ccc(c(Cl)c5)O4)c4ccc(O)c(c4)-c4c(O)cc(O)cc4C(C(=O)O)NC3=O)OC(CO)C(O)C2O)OC(C)C1O (centres unmarked) [RV131]
MIC ([1]; broth microdilution): 4 µg/mL (≈ 2.31 µM) | MIC ([2]; broth microdilution): 4 µg/mL (≈ 2.31 µM)

Compound: CCCCCCCCCCCCCCOC(=O)CNC1(C)CC(OC2C(Oc3c4cc5cc3Oc3ccc(cc3Cl)C(O)C3NC(=O)C(NC(=O)C5NC(=O)C(CC(N)=O)NC(=O)C(NC(=O)C(CC(C)C)NC)C(O)c5ccc(c(Cl)c5)O4)c4ccc(O)c(c4)-c4c(O)cc(O)cc4C(C(=O)O)NC3=O)OC(CO)C(O)C2O)OC(C)C1O (centres unmarked) [RV127]
MIC ([1]; broth microdilution): 4 µg/mL (≈ 2.35 µM) | MIC ([2]; broth microdilution): 4 µg/mL (≈ 2.35 µM)

Compound: CCCCCCCCCCCCNC(=O)CNC1(C)CC(OC2C(Oc3c4cc5cc3Oc3ccc(cc3Cl)C(O)C3NC(=O)C(NC(=O)C5NC(=O)C(CC(N)=O)NC(=O)C(NC(=O)C(CC(C)C)NC)C(O)c5ccc(c(Cl)c5)O4)c4ccc(O)c(c4)-c4c(O)cc(O)cc4C(C(=O)O)NC3=O)OC(CO)C(O)C2O)OC(C)C1O (centres unmarked) [RV95]
MIC potency, fold less potent than RV40 [1, 3]: ~2 fold | MIC potency, fold more potent than telavancin [1, 3]: ~2 fold | MIC potency, fold more potent than vancomycin [1, 3]: approximately 30 fold | MIC ([1]; broth microdilution): 0.031 µg/mL (≈ 0.0185 µM) | MIC ([2]; broth microdilution): 0.031 µg/mL (≈ 0.0185 µM)

Compound: CCCCCCCCCCCCCCNC(=O)CNC1(C)CC(OC2C(Oc3c4cc5cc3Oc3ccc(cc3Cl)C(O)C3NC(=O)C(NC(=O)C5NC(=O)C(CC(N)=O)NC(=O)C(NC(=O)C(CC(C)C)NC)C(O)c5ccc(c(Cl)c5)O4)c4ccc(O)c(c4)-c4c(O)cc(O)cc4C(C(=O)O)NC3=O)OC(CO)C(O)C2O)OC(C)C1O (centres unmarked) [RV130]
MIC ([1]; broth microdilution): 0.25 µg/mL (≈ 0.147 µM) | MIC ([2]; broth microdilution): 0.125 µg/mL (≈ 0.0734 µM)

Further molecules by falling MIC ([1]; broth microdilution), results first:

MIC ([1]; broth microdilution): 2 µg/mL (≈ 1.19 µM) | MIC ([2]; broth microdilution): 2 µg/mL (≈ 1.19 µM)
Compound: CCCCCCCCCCCCOC(=O)CNC1(C)CC(OC2C(Oc3c4cc5cc3Oc3ccc(cc3Cl)C(O)C3NC(=O)C(NC(=O)C5NC(=O)C(CC(N)=O)NC(=O)C(NC(=O)C(CC(C)C)NC)C(O)c5ccc(c(Cl)c5)O4)c4ccc(O)c(c4)-c4c(O)cc(O)cc4C(C(=O)O)NC3=O)OC(CO)C(O)C2O)OC(C)C1O (centres unmarked) [RV126]

MIC ([1]; broth microdilution): 0.75 µg/mL (≈ 0.463 µM) | MIC ([2]; broth microdilution): 0.5 µg/mL (≈ 0.309 µM)
Compound: CCCCCCCCOC(=O)CNC1(C)CC(OC2C(Oc3c4cc5cc3Oc3ccc(cc3Cl)C(O)C3NC(=O)C(NC(=O)C5NC(=O)C(CC(N)=O)NC(=O)C(NC(=O)C(CC(C)C)NC)C(O)c5ccc(c(Cl)c5)O4)c4ccc(O)c(c4)-c4c(O)cc(O)cc4C(C(=O)O)NC3=O)OC(CO)C(O)C2O)OC(C)C1O (centres unmarked) [RV124]

MIC ([1]; broth microdilution): 0.25 µg/mL (≈ 0.152 µM) | MIC ([2]; broth microdilution): 0.25 µg/mL (≈ 0.152 µM)
Compound: CCCCCCCCCCOC(=O)CNC1(C)CC(OC2C(Oc3c4cc5cc3Oc3ccc(cc3Cl)C(O)C3NC(=O)C(NC(=O)C5NC(=O)C(CC(N)=O)NC(=O)C(NC(=O)C(CC(C)C)NC)C(O)c5ccc(c(Cl)c5)O4)c4ccc(O)c(c4)-c4c(O)cc(O)cc4C(C(=O)O)NC3=O)OC(CO)C(O)C2O)OC(C)C1O (centres unmarked) [RV55]

MIC ([1]; broth microdilution): 0.094 µg/mL (≈ 0.0561 µM) | MIC ([2]; broth microdilution): 0.063 µg/mL (≈ 0.0376 µM)
Compound: CCCCCCCCCCCC(=O)OCCNC1(C)CC(OC2C(Oc3c4cc5cc3Oc3ccc(cc3Cl)C(O)C3NC(=O)C(NC(=O)C5NC(=O)C(CC(N)=O)NC(=O)C(NC(=O)C(CC(C)C)NC)C(O)c5ccc(c(Cl)c5)O4)c4ccc(O)c(c4)-c4c(O)cc(O)cc4C(C(=O)O)NC3=O)OC(CO)C(O)C2O)OC(C)C1O (centres unmarked) [RV65]
